Ki and IC50 data for 9 compounds are collected here from patent US20100286145A1, “ISOPHTHALAMIDE DERIVATIVES INHIBITING BETA-SECRETASE ACTIVITY” (CoMentis, Inc., priority 2007, published 2010).

In assay [1] the target is memapsin 2 (Homo sapiens, UniProt P56817). The experiment in a line: Inhibition of memapsin 2 beta-secretase activity (fluorogenic substrate FS-2). It is filed as biochemical. The following applies: memapsin 2, pH 4, 37° C., 20 minutes pre-incubation; read-out: M2Ki. Summed up:
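Kinetic fluorogenic assay: hydrolysis of the MCA/DNP-labelled APP Swedish-variant peptide FS-2 monitored as fluorescence rise at 37° C, pH 4, after 20 min enzyme–compound preincubation. Relative rates fitted with a tight-binding inhibitor model.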

Assay [2] relates to Aβ production in Chinese hamster ovary cells that over-express human APP695 with the London and Swedish mutations. The experiment in a line: Cellular Aβ IC50 determination (Aβ40 sandwich ELISA). In kind it is cell-based. The note with it: Cricetulus griseus; cellular Aβ production; read-out: IC50. The gist of the method: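 Aβ40 in media quantified by sandwich ELISA, normalized to control incubations and fitted with a 4-parameter IC50 model. Compounds dosed to a final concentration near 4 μM (0.4% DMSO) on CHO cells expressing human APP695 (London and Swedish mutants) seeded at 10% confluency.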

memapsin 2, sequence (P56817 46-501): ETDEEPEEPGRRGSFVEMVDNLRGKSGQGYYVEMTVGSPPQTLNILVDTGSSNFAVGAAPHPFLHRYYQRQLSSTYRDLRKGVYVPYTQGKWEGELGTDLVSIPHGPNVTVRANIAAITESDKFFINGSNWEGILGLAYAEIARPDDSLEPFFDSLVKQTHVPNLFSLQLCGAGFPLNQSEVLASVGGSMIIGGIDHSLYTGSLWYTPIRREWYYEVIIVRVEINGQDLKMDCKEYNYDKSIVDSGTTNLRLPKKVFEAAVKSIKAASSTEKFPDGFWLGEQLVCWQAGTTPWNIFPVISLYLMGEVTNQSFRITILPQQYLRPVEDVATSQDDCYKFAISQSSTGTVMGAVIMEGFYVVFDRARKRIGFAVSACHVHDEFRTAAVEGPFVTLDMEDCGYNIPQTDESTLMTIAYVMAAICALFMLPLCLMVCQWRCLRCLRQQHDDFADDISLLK

In the case of `CNC(=O)c1cc(C(=O)N[C@@H](Cc2ccccc2)[C@H](O)CNCc2cccc(OC)c2)cc(C(=O)N(C)Cc2nc(C)cs2)c1` [Compound 98, N1-((2S,3R)-3-hydroxy-4-(3-methoxybenzylamino)-1-phenylbutan-2-yl)-N3,N5-dimethyl-N3-((4-methylthiazol-2-yl)methyl)benzene-1,3,5-tricarboxamide], the Ki in assay [1] is less than 0.3 µM. Further, the IC50 in assay [2] was 1 to 5 µM.

As for `Cc1csc(CN(C)C(=O)c2cc(OS(C)(=O)=O)cc(C(=O)N[C@@H](Cc3ccccc3)[C@H](O)CNCc3cncc(C(C)C)c3)c2)n1` [Compound 100, 3-((2S,3R)-3-hydroxy-4-((5-isopropylpyridin-3-yl)methylamino)-1-phenylbutan-2-ylcarbamoyl)-5-(methyl((4-methylthiazol-2-yl)methyl)carbamoyl)phenyl methanesulfonate], the Ki in assay [1] was less than 0.3 µM. Besides, the IC50 in assay [2] was less than 1 µM.

With `COc1cccc(CNC[C@@H](O)[C@H](Cc2ccccc2)NC(=O)c2cccc(C(=O)NCc3nccc(C)n3)c2)c1` [Compound 102, N1-((2S,3R)-3-hydroxy-4-(3-methoxybenzylamino)-1-phenylbutan-2-yl)-N3-((4-methylpyrimidin-2-yl)methyl)isophthalamide], the Ki in assay [1] is greater than 0.501 µM. For the same compound, in assay [2], the IC50 is greater than 5 µM.

`COc1cccc(CNC[C@@H](O)[C@H](Cc2ccccc2)NC(=O)c2cc(C(N)=O)cc(C(=O)N(C)Cc3nc(C)cs3)c2)c1` [Compound 103, N1-((2S,3R)-3-hydroxy-4-(3-methoxybenzylamino)-1-phenylbutan-2-yl)-N3-methyl-N3-((4-methylthiazol-2-yl)methyl)benzene-1,3,5-tricarboxamide]: the Ki in assay [1] was less than 0.3 µM. In addition, the IC50 in assay [2] was less than 1 µM.

For the compound `Cc1csc(CN(C)C(=O)c2cccc(C(=O)N[C@@H](Cc3ccccc3)[C@H](O)CNCc3cccc(Cl)c3)c2)n1` [Compound 104, N1-((2S,3R)-4-(3-chlorobenzylamino)-3-hydroxy-1-phenylbutan-2-yl)-N3-methyl-N3-((4-methylthiazol-2-yl)methyl)isophthalamide], the Ki in assay [1] is less than 0.3 µM. In addition, the IC50 in assay [2] was less than 1 µM.

Turning to `Cc1csc(CN(C)C(=O)c2cccc(C(=O)N[C@@H](Cc3ccccc3)[C@H](O)CNCc3cc(C(C)C)nc(C(C)C)c3)c2)n1` [Compound 106, N1-((2S,3R)-4-((2,6-diisopropylpyridin-4-yl)methylamino)-3-hydroxy-1-phenylbutan-2-yl)-N3-methyl-N3-((4-methylthiazol-2-yl)methyl)isophthalamide], the Ki in assay [1] was less than 0.3 µM. The IC50 in assay [2] was less than 1 µM.

In the case of `C[C@@H](NC(=O)c1cc(C(=O)N[C@@H](Cc2ccccc2)[C@H](O)CNCc2cccc(CO)c2)cc(N(C)S(C)(=O)=O)c1)c1ccccc1` [Compound 107, N1-((2S,3R)-3-hydroxy-4-(3-(hydroxymethyl)benzylamino)-1-phenylbutan-2-yl)-5-(N-methylmethylsulfonamido)-N3-((R)-1-phenylethyl)isophthalamide], the Ki in assay [1] is less than 0.3 µM. Also, the half-inhibitory concentration (IC50) in assay [2] is less than 1 µM.

As to `C[C@@H](NC(=O)c1cc(C(=O)N[C@@H](Cc2ccccc2)[C@H](O)CNCc2cc(C(C)(C)C)ccc2O)cc(N(C)S(C)(=O)=O)c1)c1ccccc1` [Compound 110, N1-((2S,3R)-4-(5-tert-butyl-2-hydroxybenzylamino)-3-hydroxy-1-phenylbutan-2-yl)-5-(N-methylmethylsulfonamido)-N3-((R)-1-phenylethyl)isophthalamide], the Ki in assay [1] is less than 0.3 µM. Moreover, the IC50 in assay [2] is less than 1 µM.

`Cc1csc(CN(C)C(=O)c2cccc(C(=O)N[C@@H](Cc3ccccc3)[C@H](O)CNCc3cc(C(C)(C)C)ccc3O)c2)n1` [Compound 111, N1-((2S,3R)-4-(5-tert-butyl-2-hydroxybenzylamino)-3-hydroxy-1-phenylbutan-2-yl)-N3-methyl-N3-((4-methylthiazol-2-yl)methyl)isophthalamide]: in assay [1], the Ki was less than 0.3 µM. For the same compound, the IC50 in assay [2] was less than 1 µM.
